Columns and labels:
[1] = system: Trypanosoma cruzi amastigotes CL-B5 clone; experiment: Amastigote susceptibility assay, CL-B5 clone in NCTC-929 fibroblasts (CPRG); type: cell-based; conditions: for Amastigotes CL-B5 Clone SI: NCTC-929 cytotoxicity / amastigote IC50; for IC50: intracellular amastigotes in NCTC-929 fibroblasts, 7 days, mean ± SEM
Method: For the anti-amastigote assays, axenic cultures of epimastigotes reaching their stationary phase of growth (14 day-old cultures) were used to infect non-confluent monolayers of NCTC-929 fibroblasts to obtain tissue culture derived trypomastigotes (TCT). After 24 h at 33 °C in a humidified 5% CO2 atmosphere, the infected cultures were washed with phosphate buffer saline (PBS) to removed non-penetrated epimastigotes. TCT were harvested from the supernatant of the cultures after one week of incubation in these conditions of temperature and humidity.
For this assay, 120 μL of BME containing 10,000 NCTC-929 fibroblasts/well were seeded in 48-well plates (Costar) and after their attachment, infected with TCT obtained as above in a 1:6 cell-parasite ratio. The plates were incubated at 33 °C and 5% CO2 overnight and after the infection, experimental wells were washed with PBS to eliminate non-penetrated TCT. […] Then, 50 μL of a CPRG solution in 3% Triton X-100 (pH 7.4) were added to each well in a final concentration of 400 μM and the plates incubated 3 h at 37 °C. Finally, anti-amastigote activity was estimated by reading absorbance at 595 nm in a plate reader (Infinite 200, Tecan) and calculated as in Fonseca-Berzal et al.. IC50 and NI indexes were calculated as above.

[2] = system: Trypanosoma cruzi epimastigotes CL Brener strain clone B5 (CL-B5); experiment: Epimastigote susceptibility assay, CL-B5 clone (β-galactosidase activity, CPRG); type: cell-based; conditions: for Epimastigotes CL-B5 Clone SI: NCTC-929 cytotoxicity / epimastigote IC50; for Epimastigotes CL-B5 Clone PNFX (nifurtimox IC50/compound IC50) / IC50: epimastigotes, CL-B5 clone; for IC50: 72 h at 28 °C, β-galactosidase readout, mean ± SEM
Method: (§1) For in vitro studies, the strains MHOM/CO/04/MG (MG), MHOM/CO/05/JEM (JEM) and CL Brener strain clone B5 (CL-B5) were used. The MG and JEM strains correspond to Group I and Haplotype Ia isolates from two Colombian patients in the acute phase, and CL-B5 is a strain stably transfected with Escherichia coli β-galactosidase gene (lacZ). Epimastigotes were grown in plastic culture flasks at 28 °C, in axenic liver-infusion tryptose (LIT) growth medium, supplemented with 10% heat inactivated (30 min at 56 °C) foetal calf serum (FCS; Sigma), […] hemin (Sigma), and 10 µg/mL gentamycin (Sigma) and harvested in the exponential phase for conducting the experiments. Cultures were continuously maintained in logarithmic growth by weekly passages.
Trypanocidal activity against CL-B5 strain was also assessed by measuring β-galactosidase activity. Briefly, log-phase epimastigotes were seeded in 96-well microplates at a density of 2.5 × 10^5 parasites/mL in a final volume of 200 μL/well and incubated within the compounds for 72 h at 28 °C. Afterwards, 50 μL of the β-galactosidase substrate chlorophenol red β-D-galactopyranoside (CPRG, Roche) in 0.9% Triton X-100 (Panreac) solution were added to each well (200 μM, pH 7.4) and the plates incubated at 37 °C for 3 h. Anti-epimastigote activity was estimated by reading absorbance at 595 nm. Each concentration was assayed by triplicate, in three independent experiments. […] In all spectrophotometric assays, anti-epimastigote activity percentages were calculated as (OD control wells − OD experimental wells) ×100/OD control wells.
(§2) Furthermore the Selectivity Index (SI = mammalian cell LC50/epimastigote IC50) for each compound was calculated to compare the antiprotozoal activity with its respective mammalian cell cytotoxicity.

[3] = system: Trypanosoma cruzi epimastigotes strain JEM (MHOM/CO/05/JEM); experiment: Epimastigote susceptibility assay, JEM strain (Trypan Blue and XTT); type: cell-based; conditions: for JEM Strain SI (Selectivity Index: LC50-macrophages/IC50-epimastigotes): JEM strain epimastigotes vs J774.2 macrophages; for JEM Strain PNFX (potency relative to NFX = IC50-NFX/IC50-compound; also called NI) / IC50: epimastigotes, JEM strain; for IC50: 72 h at 28 °C, 0.1-70.0 µM, mean ± SEM
Method: as §1
(§3) Three different strains of T. cruzi were used for the primary screening on epimastigote forms. For strains MG and JEM, the screening assay was performed with approximately 1 × 10^5 epimastigotes in logaritmic growth phase in 200 μL of supplemented LIT medium per well in 96-well flat bottoned plates (Costar, Corning, Cornig, NY, USA). […] The plates were incubated for 72 h at 28 °C and all experimental conditions were evaluated in triplicate in three independent experiments. The epimastigote growth inhibition was microscopically determined by the Trypan Blue dye exclusion assay and XTT (2,3-bis-(2-methoxy-4-nitro-5-sulfophenyl)-5-[(phenylamino)carbonyl]-2H-tetrazolium hydroxide). Regarding the first method, an aliquot from every culture was suspended in 0.4% trypan blue solution for 5 min and cell viability was determined under microscope by counting live parasites in each condition in a Neubauer chamber. Anti-epimastigote activity percentage was calculated as (Parasite counts in control wells-Parasite counts in experimental wells) × 100/Parasite counts in control wells. Trypanocidal activity over both strains was also measured adding 50 μL of XTT solution per well to obtain a final concentration of 0.3 mg/mL. The plate was re-incubated 24 h in the dark at 37 °C and orange formazan solution formed, was spectrophotometrically quantified at 450 nm with a 630 nm reference filter, using an Ear400FT ELISA reader.
as §2

NCTC-929 fibroblasts = experiment: in vitro; type: cell-based; conditions: NCTC-929 fibroblasts, 48 h, resazurin, mean ± SEM; read-out: Cytotoxicity NCTC-929 LC50
Method: (§4) NCTC-929 cells were placed in triplicate in 96-well microtitre plates at 15 × 10^3 cells per well in 100 µL of MEM supplemented with FBS and antibiotics. The cells were grown overnight at 37 °C in 5% CO2. Thereafter, the medium was removed and the compounds were added in 200 µL of medium and plates were incubated 48 h at 37 °C in 5% CO2. After incubation, 20 µL of 2 mM resazurin (Sigma) solution was added to each well. The plates were incubated for 3 h and metabolic activity was measured by fluorimetric readings taken in a plate fluorometer (Infinite 200, TECAN, Mannedorf, Switzerland) at λexcitation 535 nm and λemission 590 nm, according to the Alamar blue® Assay.

J774.2 macrophages = experiment: in vitro; conditions: for CC50: read-out: Macrophages LC50, J774.2 macrophages, 72 h, mean ± SEM
Method: (§5) The mouse cell lines J774.2 macrophages and NCTC clone 929 fibroblasts were used and cultured in plastic culture flasks. J774.2 and NCTC-929 cells were grown using DMEM and BME without phenol-red, respectively. Both media were supplemented with 10% heat inactivated fetal calf serum, 2 mM glutamine, 100 U/mL penicillin and 100 μg/mL streptomycin. Cell cultures were maintained at 37 °C in a humidified atmosphere containing 5% CO2 and subpassaged once a week. Cells in the pre-confluence phase were harvested with an EDTA-trypsin solution for the experiments.
(§6) Unspecific cytotoxicity was evaluated over phagocytic macrophages J774.2 cell line. To study cytotoxicity on J774.2 cells, 200 μL of a suspension of 2 × 10^5 macrophages/mL were added to 96 well flat-bottom microplates (Sigma). Cells were allowed to attach for 24 h at 37 °C and then exposed to the compounds for 72 h at the same concentrations as used for drug screening. […] Each concentration was assayed by triplicate, in independent experiments. Cytotoxicity was assessed by the Trypan Blue and XTT techniques and LC50 was calculated as described above.

[4] = system: Trypanosoma cruzi epimastigotes strain MG (MHOM/CO/04/MG); experiment: Epimastigote susceptibility assay, MG strain (Trypan Blue and XTT); type: cell-based; conditions: for MG Strain SI (Selectivity Index: LC50-macrophages/IC50-epimastigotes): MG strain epimastigotes vs J774.2 macrophages; for MG Strain PNFX (potency relative to NFX = IC50-NFX/IC50-compound; also called NI) / IC50: epimastigotes, MG strain; for IC50: 72 h at 28 °C, 0.1-70.0 µM, mean ± SEM
Method: as §1, §3, §2

in vitro [5] = type: cell-based; conditions: mouse
Method: as §4

in vitro [6] = conditions: mouse
Method: as §5, §6

[7] = Trypanosoma cruzi, NCTC929, 168 h

Molecule | Amastigotes CL-B5 Clone SI [1] | Amastigotes CL-B5 Clone PNFX (nifurtimox IC50/compound IC50) [1] | IC50 [1] [µM] | Epimastigotes CL-B5 Clone SI [2] | Epimastigotes CL-B5 Clone PNFX (nifurtimox IC50/compound IC50) [2] | IC50 [2] [µM] | JEM Strain SI (Selectivity Index: LC50-macrophages/IC50-epimastigotes) [3] | JEM Strain PNFX (potency relative to NFX = IC50-NFX/IC50-compound; also called NI) [3] | IC50 [3] [µM] | CC50 (NCTC-929 fibroblasts) [µM] | CC50 (J774.2 macrophages) [µM] | MG Strain SI (Selectivity Index: LC50-macrophages/IC50-epimastigotes) [4] | MG Strain PNFX (potency relative to NFX = IC50-NFX/IC50-compound; also called NI) [4] | IC50 [4] [µM] | IC50 [1, 7] [µM] | IC50 ([2]; Trypanosoma cruzi) [µM] | IC50 ([3]; Trypanosoma cruzi, 72 h) [µM] | CC50 at 48 h (in vitro [5]) [µM] | CC50 at 72 h (in vitro [6]) [µM] | IC50 ([4]; Trypanosoma cruzi, 72 h) [µM] | also measured
2-(tert-Butoxycarbonyl)-dodecan-1,2-diamine [Compound 14] | 9.9 | 0.2 | 3 ± 0.21 | 11.8 | 4.2 | 2.5 ± 0.03 | 3.3 | 1.0 | 14.5 ± 0.05 | 29.6 ± 0.01 | 47.1 ± 0.35 | 4.4 | 2.0 | 10.8 |  |  |  |  |  |  | 
2-tert-Butoxycarbonyl-hexadecan-1,2-diamine [Compound 15] | 9.8 | 0.2 | 2.6 ± 0.23 | 10.6 | 4.3 | 2.4 ± 0.01 | 2.4 | 0.7 | 20.4 ± 0.3 | 25.6 ± 0.06 | 48.1 ± 0.15 | 4.0 | 1.8 | 12 ± 2.15 |  |  |  |  |  |  | 
CCCCCCCCCCCCCCC(N)CO (stereo not drawn) [Compound 2, 2-Aminohexadecanol] | 14.0 | 0.3 |  | 7.2 | 3.0 |  | 26 | 4.9 |  |  |  | 3.3 | 0.9 |  | 1.8 ± 0.12 | 3.5 ± 0.01 | 3 ± 1.5 | 25.2 ± 0.12 | 77.8 ± 0.35 | 23.7 ± 3.15 | 
CCCCCCCCCCCCCCC(CO)NCC (stereo not drawn) [Compound 5, 2-(Ethylamino)hexadecanol] | 54 | 1.0 |  | 9.8 | 3.1 |  | 2.3 | 0.8 |  |  |  | 2.0 | 1.0 |  | 0.6 ± 0.25 | 3.3 ± 0.1 | 19.3 ± 1.35 | 32.4 ± 0.02 | 43.4 ± 0.5 | 21.6 ± 2.95 | 
CCCCCCCCCCCCCCC(CO)NCCCC (stereo not drawn) [Compound 6, 2-(Butylamino)hexadecanol] | 47.8 | 0.3 |  | 22.7 | 2.5 |  |  | 5.3 |  |  |  |  | 6.6 |  | 2 ± 0.27 | 4.2 ± 0.52 | 2.8 ± 0.75 | 95.6 ± 1.19 | 63.9 ± 3.5 | 3.2 ± 0.2 | times less toxic than NFX (J774.2 macrophages; macrophages LC50 relative to NFX): 1.3

From publication PMC6272662, “Trypanocidal Activity of Long Chain Diamines and Aminoalcohols” (Molecules, 2015)
